Laboratory results as given in ChEMBL document CHEMBL5038604, “5α-Epoxyalantolactone Inhibits Metastasis of Triple-Negative Breast Cancer Cells by Covalently Binding a Conserved Cysteine of Annexin A2” (J Med Chem, 2021).
Activity calls are given as the source filed them. The rule behind the calls is not given here.

Assays:
4T1 [1] = assay: Antitumor activity against mouse 4T1 cells expressing luciferase gene implanted in BALB/c lung metastatic mouse model assessed as decrease in lung metastasis at 100 mg/kg, po administered once a day for 20 days by H&E staining based assay; type: functional, organism-based; details: time 20.0 day
4T1 [2] = assay: Antitumor activity against mouse 4T1 cells expressing luciferase gene implanted in BALB/c lung metastatic mouse model assessed as reduction in fluorescence at 100 mg/kg, po administered once a day for 20 days by luciferase reporter gene based bioluminescence assay; type: functional, organism-based; details: time 20.0 day
4T1 [3] = assay: Antitumor activity against mouse 4T1 cells xenografted in BALB/c mouse assessed as decrease in liver metastasis at 100 mg/kg, po administered once a day for 36 days by H&E staining based assay; type: functional, organism-based; details: time 36.0 day
4T1 [4] = assay: Antitumor activity against mouse 4T1 cells xenografted in BALB/c mouse assessed as decrease in lung metastasis at 100 mg/kg, po administered once a day for 36 days by H&E staining based assay; type: functional, organism-based; details: time 36.0 day
[5] = Toxicity in BALB/c mouse xenografted with mouse 4T1 assessed as effect on body weight at 100 mg/kg, po administered once a day for 36 days; type: organism-based; details: in vivo, 864 h, time 36 day
4T1 [6] = assay: Antitumor activity against mouse 4T1 cells expressing luciferase gene implanted in BALB/c lung metastatic mouse model assessed as decrease in lung metastatic burden at 100 mg/kg, po administered once a day for 20 days by H&E staining based assay; type: functional, organism-based; details: time 20.0 day
4T1 [7] = assay: Antimetastatic activity against mouse 4T1 cells expressing luciferase gene implanted in BALB/c lung metastatic mouse model assessed as down regulation of ANXA2 expression in liver tissue at 100 mg/kg, po administered once a day for 20 days; type: functional, organism-based; details: time 20.0 day
4T1 [8] = assay: Antimetastatic activity against mouse 4T1 cells expressing luciferase gene implanted in BALB/c lung metastatic mouse model assessed as down regulation of E-cadherin expression in liver tissue at 100 mg/kg, po administered once a day for 20 days; type: functional, organism-based; details: time 20.0 day
4T1 [9] = assay: Antitumor activity against mouse 4T1 cells xenografted in BALB/c mouse assessed as tumor growth inhibition at 100 mg/kg, po administered once a day for 36 days; type: functional; details: 4T1, po, 864 h, time 36 day, read-out: TGI
MDA-MB-231 [10] = assay: Antimetastatic activity against human MDA-MB-231 cells assessed as decrease in E-cadherin expression in cell membrane at 5 to 10 uM measured after 48 hrs by Western blot analysis; type: functional, cell-based; details: dose 5-10 µM
MDA-MB-231 [11] = assay: Inhibition of cell migration in human MDA-MB-231 cells at 2.5 to 5 uM incubated for 36 hrs by wound healing assay; type: functional, cell-based; details: dose 2.5-5 µM
MDA-MB-231 [12] = assay: Inhibition of colony formation in human MDA-MB-231 cells at 2.5 to 5 uM incubated for 7 days by crystal violet staining based assay; type: functional, cell-based; details: dose 2.5-5 µM, time 7.0 day
MDA-MB-231 [13] = assay: Antiproliferative activity against human MDA-MB-231 cells assessed as reduction in cell viability after 48 hrs by MTT assay; type: functional, cell-based; details: MDA-MB-231, 48 h
[14] = target: T1, Annexin A2/S100-A10 (Homo sapiens) (UniProt P07355+P60903); assay: Inhibition of human ANXA2/S100A10 interaction in MDA-MB-231 cells pretreated with compound for 48 hrs by immunoprecipitation based Western blot analysis; type: cell-based
T1 sequence (P07355 2-339 limits assumed): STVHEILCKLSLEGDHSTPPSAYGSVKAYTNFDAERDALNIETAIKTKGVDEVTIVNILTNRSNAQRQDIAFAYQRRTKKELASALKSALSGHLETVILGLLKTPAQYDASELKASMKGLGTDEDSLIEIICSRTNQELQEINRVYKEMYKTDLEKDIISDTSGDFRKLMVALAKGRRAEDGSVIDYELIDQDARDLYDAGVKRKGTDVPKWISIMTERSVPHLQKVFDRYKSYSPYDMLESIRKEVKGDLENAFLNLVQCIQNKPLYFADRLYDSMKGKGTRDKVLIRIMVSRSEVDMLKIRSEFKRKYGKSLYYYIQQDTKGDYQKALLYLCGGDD
T1 sequence (P60903 whole entry partner): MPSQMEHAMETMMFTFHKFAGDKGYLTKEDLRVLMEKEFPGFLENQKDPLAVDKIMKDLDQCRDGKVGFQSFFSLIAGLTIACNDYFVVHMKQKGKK

4T1 [15] = assay: Antiproliferative activity against mouse 4T1 cells assessed as reduction in cell viability after 48 hrs by MTT assay; type: functional, cell-based; details: 4T1, 48 h
4T1 [16] = assay: Inhibition of cell stemness in mouse 4T1 cells assessed as reduction in size of tumor spheres incubated in tumorsphere medium for 4 days followed by compound incubation for 96 hrs by microscopic analysis; type: functional, cell-based
MDA-MB-231 [17] = assay: Antimetastatic activity against human MDA-MB-231 cells assessed as accumulation of E-cadherin in cell cytoplasm at 5 to 10 uM measured after 48 hrs by Western blot analysis; type: functional, cell-based; details: dose 5-10 µM
4T1 [18] = assay: Inhibition of colony formation in mouse 4T1 cells at 2.5 to 5 uM incubated for 7 days by crystal violet staining based assay; type: functional, cell-based; details: dose 2.5-5 µM, time 7.0 day
MDA-MB-231 [19] = assay: Antitumor activity against human MDA-MB-231 cells assessed as reduction in cell invasion at 2.5 to 5 uM measured after 24 hrs by crystal violet staining based transwell assay; type: functional; details: dose 2.5-5 µM
MDA-MB-231 [20] = assay: Inhibition of cell stemness in human MDA-MB-231 cells assessed as reduction in tumor spheres count at 10 to 20 uM incubated in tumorsphere medium for 4 days followed by compound incubation for 96 hrs by microscopic analysis; type: functional, cell-based; details: dose 10-20 µM
[21] = target: T1, Annexin A2/S100-A10 (Homo sapiens); assay: Inhibition of human ANXA2/S100A10 interaction in MDA-MB-231 cells at 5 to 10 uM measured after 48 hrs by immunocytochemistry assay; type: cell-based; details: dose 5-10 µM
4T1 [22] = assay: Inhibition of cell migration in mouse 4T1 cells at 5 to 10 uM incubated for 24 hrs by wound healing assay; type: functional, cell-based; details: dose 5-10 µM
4T1 [23] = assay: Inhibition of cell stemness in mouse 4T1 cells assessed as reduction in tumor spheres count at 10 to 20 uM incubated in tumorsphere medium for 4 days followed by compound incubation for 96 hrs by microscopic analysis; type: functional, cell-based; details: dose 10-20 µM
4T1 [24] = assay: Antitumor activity against mouse 4T1 cells assessed as reduction in cell invasion at 2.5 to 5 uM measured after 24 hrs by crystal violet staining based transwell assay; type: functional; details: dose 2.5-5 µM
MDA-MB-231 [25] = assay: Inhibition of cell stemness in human MDA-MB-231 cells assessed as reduction in size of tumor spheres incubated in tumorsphere medium for 4 days followed by compound incubation for 96 hrs by microscopic analysis; type: functional, cell-based
4T1 [26] = assay: Antitumor activity against mouse 4T1 cells expressing luciferase gene implanted in BALB/c lung metastatic mouse model assessed as reduction in fluorescence at 10 mg/kg, ip administered twice a week for 20 days by luciferase reporter gene based bioluminescence assay; type: functional, organism-based; details: time 20.0 day

C[C@H]1CCC[C@]2(C)C[C@H]3OC(=O)[C@@H](CN(C)C)[C@H]3[C@@H]3O[C@@]132.O=C(O)/C=C/C(=O)O
Activity (4T1 [1]): Active | Activity (4T1 [2]): Active | Activity (4T1 [3]): Active | Activity (4T1 [4]): Active | Activity [5]: Non-Toxic | Activity (4T1 [6]): Active | Activity (4T1 [7]): Active | Activity (4T1 [8]): Active | inhibition in vivo at 100 mg/kg (4T1 [9]): 30%

C=C1C(=O)O[C@@H]2C[C@@]3(C)CCC[C@H](C)[C@@]34O[C@H]4[C@H]12
Activity (MDA-MB-231 [10]): Active | inhibition (MDA-MB-231 [11]): Active | inhibition (MDA-MB-231 [12]): Active | IC50 (MDA-MB-231 [13]): 16 µM | inhibition [14]: Active | IC50 (4T1 [15]): 18.4 µM | inhibition (4T1 [16]): Dose-Dependent Effect | Activity (MDA-MB-231 [17]): Active | inhibition (4T1 [18]): Active | Activity (MDA-MB-231 [19]): Active | inhibition (MDA-MB-231 [20]): Active | inhibition [21]: Active | inhibition (4T1 [22]): Active | inhibition (4T1 [23]): Active | Activity (4T1 [24]): Active | inhibition (MDA-MB-231 [25]): Dose-Dependent Effect

CC(=O)O[C@H]1C(=O)[C@@]2(C)[C@H]([C@H](OC(=O)c3ccccc3)[C@]3(O)C[C@H](OC(=O)[C@H](O)[C@@H](NC(=O)c4ccccc4)c4ccccc4)C(C)=C1C3(C)C)[C@]1(OC(C)=O)CO[C@@H]1C[C@@H]2O
Activity (4T1 [26]): inactive
